Test results as given in PMC7970304, “The Effects of Apelin and Elabela Ligands on Apelin Receptor Distinct Signaling Profiles” (Frontiers in Pharmacology, 2021).
“Also recorded” adds a separate entry of the source.

Experiments:
[1] = target: T1, APJ (Apelin receptor) (Homo sapiens, UniProt P35414); assay: BRET-based cAMP biosensor (CAMYEL) assay; assay type: cell-based
T1 sequence (P35414 1-380): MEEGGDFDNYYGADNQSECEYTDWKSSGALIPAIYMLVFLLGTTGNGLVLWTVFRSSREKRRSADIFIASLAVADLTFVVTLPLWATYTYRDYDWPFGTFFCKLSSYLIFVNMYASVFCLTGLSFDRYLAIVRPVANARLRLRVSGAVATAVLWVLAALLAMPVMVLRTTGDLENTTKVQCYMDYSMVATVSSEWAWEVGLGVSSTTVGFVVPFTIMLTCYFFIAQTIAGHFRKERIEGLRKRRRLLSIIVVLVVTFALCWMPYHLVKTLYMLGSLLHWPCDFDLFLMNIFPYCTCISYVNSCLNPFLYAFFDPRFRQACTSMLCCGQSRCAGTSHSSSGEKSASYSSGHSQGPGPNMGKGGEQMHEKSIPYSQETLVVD
Experimental: The cAMP concentration was measured using a BRET-based cAMP biosensor ([Barak et al., 2008]; [Ji et al., 2017]) in HEK293 cells transiently co-expressing YFP-Epac-RLuc and APJ. The sensor is composed of an N-terminal truncated variant of EPAC tagged with Rluc and YFP at N-terminal and C-terminal, respectively. […] At 24 h after transfection, cells were digested and plated into a 96-well microplate for 24 h following adding the substrate coelenterazine H into the medium at the final concentration of 5 µM and the nonspecific phosphodiesterase inhibitor IBMX (40 μM) for 20 min, and the cells were stimulated for 10 min with forskolin (10 μM).
(A) A schematic diagram of YFP-cAMP-Rluc fusion expression vector. […] Data represent mean ± SEM from four independent experiments (Supplementary Table S1).
The concentration-response data for the ligands in various assays were analyzed to determine the biases of the ligands for G protein dependent signaling or β-arrestin dependent signaling, according to a previously published method ([Kenakin et al., 2012]; [Hager et al., 2016]; [Hothersall et al., 2017]). Briefly, the concentration-response data for each ligand were fitted to the Black–Leff operation model to obtain the values of τ and K A, using the following equation: Response=[A]^nτ^nEm/[A]^nτ^n+([A]KA)^n where [A] is the concentration of the agonist, E m is the maximal response of the system, n is the transducer slope, and K A and τ describe the affinity and efficacy of the agonist, respectively. In the data fitting, the reparametrized form of the equation proposed by [Kenakin et al. (2012)] was used: Response=Em/1+exp{nln[1+exp(β1)/[A]]−nβ2} where β 1 and β 2 are the natural logarithm of K A and τ, respectively, and E m was set to 1. Thus, for each concentration-response curve, a non-linear regression was performed to fit the above equation to give β 1 and β 2 (as well as n). Log (τ/K A) values (“transduction coefficients”) for each ligand vs. each pathway were obtained. […] The ΔΔlog (τ/K A), or Log (Bias), which is the logarithm of the bias factor for a given pathway over a reference pathway (here, intracellular calcium release), was calculated for each ligand as Δlog (τ/K A)–Δlog (τ/K A)Calcium. The 95% confidence interval (CI) was expressed as the mean ± standard error; Log (Bias) values, whose 95% CI crosses 0, were considered statistically insignificant.
The data were analyzed using GraphPad Prism v5.0. All the data are presented as the mean ± SEM. Differences between groups were compared by one-way analysis of variants (ANOVA), followed by post-hoc tests (Tukey’s test), When p < 0.05, the difference was considered significant. All experiments were repeated at least four times. The dose-response curves were generated using non-linear fitting model log (agonist) vs. response (three-parameters), with Hill Slope held to 1, i.e., Y = Bottom + (Top-Bottom)/(1 + 10^(LogEC50-X)).
P<0.05 was considered as statistically significant. Control group (HG, Cells were stimulated with high glucose (Glucose Concentration: 4500 mg/L, HEPES, No Phenol Red). Data represent mean ± SEM from four independent experiments. Statistical analysis (Table S1)

[2] = target: APJ; set-up: method as in Couvineau et al., 2020; details: displacement of 125I-pE13F; ref Couvineau et al., 2020; cited from earlier work
[3] = target: T1, APJ (Apelin receptor); assay: Radioligand competition binding assay, [125I]-apelin-13, HEK-293/APJ membranes; set-up: APJ membrane preparations were obtained from transiently transfected HEK293 cells; host or cells: HEK293 cells, transiently transfected; membranes prepared; details: [125I]-apelin-13 competition
Experimental: APJ membrane preparations were obtained from transiently transfected HEK293 cells. HEK293 cells were cultured in complete DMEM (DMEM plus 10% FBS) for 24 h, until they reached at least 70% confluence. Transfection reagent containing 20 μg of the APJ expression plasmid was added, and the cells were incubated for another 24 h. The cells were then harvested into 25 ml homogenization buffer (HB) [250 mM sucrose and 25 mM HEPES (pH 7.3); adjusted to pH 7.5 at 4°C and then filtered] supplemented with 250 μL phenylmethylsulfonyl fluoride (PMSF), homogenized using an IKA T25 Ultra Turrax (24,000 rpm), and centrifuged at 6,025 rpm for 15 min at 4°C. […]
The binding reaction was stopped by rapid filtration through polyethyleneimine (PEI)-coated GF/B plates using a cell harvester, and the plates were washed three times with ice-cold wash buffer [50 mM HEPES (pH 7.4), 500 mM NaCl, and 0.1% BSA; filtered and stored at 4°C]. The filtration plates were dried at 37°C for 2 h; 50 μL scintillation cocktail (Perkin Elmer, Wellesley, MA, United States), was added to each well; and the radioactivity was measured using a Perkin Elmer 1450 MicroBeta TriLux Microplate Scintillation and Luminescence Counter.
The binding reaction was stopped, the plates were washed and dried, the scintillation cocktail was added, and the radioactivity was measured as described above.

[4] = target: T1, APJ (Apelin receptor); assay: Analysis of ligand bias across APJ pathways; assay type: cell-based; set-up: APJ membrane preparations were obtained from transiently transfected HEK293 cells; host or cells: HEK293 cells, transiently transfected; membranes prepared; details: reference ligand Apelin-13, reference pathway calcium release
Experimental: The concentration-response data for the ligands in various assays were analyzed to determine the biases of the ligands for G protein dependent signaling or β-arrestin dependent signaling, according to a previously published method ([Kenakin et al., 2012]; [Hager et al., 2016]; [Hothersall et al., 2017]). Briefly, the concentration-response data for each ligand were fitted to the Black-Leff operation model to obtain the values of τ and K A, using the following equation: Response=[[…] where [A] is the concentration of the agonist, E m is the maximal response of the system, n is the transducer slope, and K A and τ describe the affinity and efficacy of the agonist, respectively. In the data fitting, the reparametrized form of the equation proposed by [Kenakin et al. (2012)] was used: Response=[…]β2} where β 1 and β 2 are the natural logarithm of K A and τ, respectively, and E m was set to 1. […] The ΔΔlog (τ/K A), or Log (Bias), which is the logarithm of the bias factor for a given pathway over a reference pathway (here, intracellular calcium release), was calculated for each ligand as Δlog (τ/K A)-Δlog (τ/K A)Calcium. The 95% confidence interval (CI) was expressed as the mean ± standard error; Log (Bias) values, whose 95% CI crosses 0, were considered statistically insignificant.

SMILES: CSCC[C@H](NC(=O)[C@@H]1CSSC[C@H](NC(=O)[C@H](CC(N)=O)NC(=O)[C@H](Cc2c[nH]cn2)NC(=O)[C@H](CCCCN)NC(=O)[C@H](CCCNC(=N)N)NC(=O)[C@@H](N)CC(C)C)C(=O)N[C@@H](CC(C)C)C(=O)N[C@@H](CCC(N)=O)C(=O)N[C@@H](CCCNC(=N)N)C(=O)N[C@@H](CCCNC(=N)N)C(=O)N1)C(=O)N1CCC[C@H]1C(=O)N[C@@H](CC(C)C)C(=O)N[C@@H](Cc1c[nH]cn1)C(=O)N[C@@H](CO)C(=O)N[C@@H](CCCNC(=N)N)C(=O)N[C@H](C(=O)N1CCC[C@H]1C(=O)N[C@@H](Cc1ccccc1)C(=O)N1CCC[C@H]1C(=O)O)C(C)C [Elabela-21]
- P vs HG, cAMP production ([1]; 0.001 nM): P>0.05
- P vs HG, cAMP production ([1]; 0.01 nM): P>0.05
- P vs HG, cAMP production ([1]; 0.1 nM): P>0.05
- P vs HG, cAMP production ([1]; 1 nM): ^**P<0.01
- P vs HG, cAMP production ([1]; 10 nM): ^***P<0.001
- P vs HG, cAMP production ([1]; 100 nM): ^***P<0.001
- P vs HG, cAMP production ([1]; 1000 nM): ^***P<0.001
- Bias factor ([1]; cAMP over Ca2+, reference Apelin-13): 38.0
- Log (Bias) ([1]; cAMP over Ca2+, reference Apelin-13, footnote a = statistically insignificant): 1.6 ± 0.3
- bias over calcium release ([1]; cAMP pathway): 38 fold
- log (τ/KA) ([1]; cAMP, Black–Leff operational model): −0.1 ± 0.1
- Δlog (τ/KA) ([1]; cAMP, relative to Apelin-13): 0.0 ± 0.2
- pKi [2]: 9.49
- binding affinity (in words) [3]: slightly weaker binding affinity than Elabela-32
- signaling bias profile (in words) [4]: much stronger activity on the cAMP pathway; also recorded: weaker activity; also recorded: very weak effects on β-arrestin dependent pathways
